{"source": "patent US20260273074A1", "about": "“FERRITIN-TARGETING PROTACS AND METHODS OF INDUCING PYROPTOSIS” (Wisconsin Alumni Research Foundation, priority 2023, published 2026)", "key": {"ferritin (Mus musculus)": {"system": "T1, ferritin (Mus musculus)", "T1 construct": "ferritin expression levels in B16F10 cells were evaluated; endogenous in cells; host or cells: B16F10 (murine melanoma)", "test": "Quantitative proteomics analysis of whole-cell B16F10 proteins", "assay_type": "cell-based, murine", "conditions": "B16F10 cells, 0.5 μM, 12 h", "description": "Quantitative proteomics analysis: Cell culture and proteomic sample preparation: B16F10 cells were seeded in T75 cell culture flasks (2×10^6 cells per well) and cultured for 24 h. […] After incubation for 12 h, cells were washed with cold PBS twice and digested with 2 mL trypsin. The cell pellets were collected in 1.5 mL Eppendorf tubes through centrifugation at 1200 rpm for 3 minutes at 4° C. As for the proteomic sample preparation, cell pellets placed on the ice were completely resuspended with a cold 100 mM ammonium bicarbonate (ABC) solution. […] Based on the quantification results, an appropriate volume of lysate supernatant containing 20 μg proteins was collected and incubated with 10 mM DL-dithiothreitol (DTT) at 37° C. for 30 min. […]\nLC-MS/MS analysis: The LC separations were performed with a Waters™ Nano-Acquity UPLC System. […] Eluted peptides were analyzed on Thermo Orbitrap Q-Exactive™ MS operated in positive ion mode with nano-ESI high-resolution Q-Exactive™ analysis. […]\nData analysis: All the resulting raw files were analyzed using Proteome Discoverer software v.2.4 (Thermo Fisher Scientific), SEQUEST HT using Uniprot Mus musculus reference proteome with a decoy database added to establish control variability and false discovery rates. […]"}, "B16F10 cells [1]": {"system": "B16F10 cells", "test": "Cell viability evaluation by CCK-8 assay", "conditions": "for IC50: Mus musculus, read-out: IC50 of cell viability", "description": "Cell viability evaluation: The cell viability of B16F10 cells treated with ferritin degraders with or without various inhibitors was evaluated by CCK-8 assay. Briefly, 5×10^3 cells were seeded in 96-well plates and cultured for 24 h for attachment. Then the medium in the corresponding wells, except the control, was replaced with 100 μL of medium containing the indicated degrader formulations with concentrations of 0.008, 0.04, 0.2, 1, and 5 μM. After incubation for 24 or 48 h, CCK-8 reagent was added and interacted with cells at 37° C. for 1 h. The absorbance was measured by a microplate reader (Infinite M Plex) at the detection wavelength of 450 nm.\nFor blocking assays with Z-VAD, NSCI, and VX-765, 5×10^3 cells were seeded in 96-well plates and cultured 24 h for attachment. Then the medium in the corresponding wells, except the control, was replaced with 100 μL of medium containing Z-VAD (10 μM), NSCI (0.1 μM), or VX-765 (10 μM). […] Following another 24-h incubation, CCK-8 reagents were added and interacted with cells at 37° C. for 1 h. The absorbance was measured by a microplate reader (Infinite® M Plex) at the detection wavelength of 450 nm. For blocking assays with DFOM, 5×10^3 cells were seeded in 96-well plates and cultured 24 h for attachment. […] Following another 20-h incubation, CCK-8 reagents were added and interacted with cells at 37° C. for 1 h. The absorbance was measured by a microplate reader (Infinite® M Plex) at the detection wavelength of 450 nm."}, "GSDME-N": {"system": "GSDME-N", "test": "Western blot of cleaved N-terminal GSDME (GSDME-N) in B16F10 cells", "assay_type": "cell-based, murine", "conditions": "20 h", "description": "As for the determination of cleaved-GSDME and cleaved-caspase-3, B16F10 cells were seeded in 6-well culture plates (2×10^5 cells per well) and cultured for 24 h. Then the medium in the corresponding wells except the negative control was replaced with 1 mL of medium containing ferritin degraders, albumin nanoparticles, or the degrader with inhibitors at the indicated concentrations. Incubation for another 6 or 8 h was used to test the cleaved-caspase-3, while treatment for another 16 or 20 h was used to test cleaved-GSDME. The following procedures were the same as mentioned above."}, "B16F10 cells [2]": {"system": "B16F10 cells", "test": "ROS detection with DCFH-DA", "assay_type": "cell-based, murine", "conditions": "5 μM, 8 h, compared to DeFer-2epi and VHL ligand plus OA", "description": "ROS detection: DCFH-DA was used to evaluate the generation of intracellular ROS in cancer cells. 5×10^4 B16F10 cells were seeded in confocal dishes and cultured for 24 h at 37° C. […] After incubation for 8 h, cells were stained with DCFH-DA (10 μM) for 30 min. Finally, the cells were washed with PBS and subjected to Leica SP8 Confocal WLL STED Microscope for observation."}}, "note": "Read-outs that look alike come from different tables or passages of the source.", "data": [{"smiles": "CCCCCCCCC=CCCCCCCCC(=O)NCCCC(=O)NC(C(=O)N1CC(O)CC1C(=O)NCc1ccc(-c2scnc2C)cc1)C(C)(C)C", "note": "(stereo not shown) [DeFer-2]", "values": [{"measurement": "reduction of ferritin levels compared to DeFer-2epi", "setting": "ferritin (Mus musculus); proteomics", "result": 44.1, "unit": "%"}, {"measurement": "selectivity of ferritin degradation (global protein abundance)", "setting": "ferritin (Mus musculus); versus DeFer-2epi", "result": "strong on-target effect"}, {"measurement": "cytotoxicity against B16F10 cells", "setting": "B16F10 cells [1]", "result": "severe cytotoxicity"}, {"measurement": "IC50", "setting": "B16F10 cells [1]; B16-F10, 24 h", "result": 3.1, "unit": "µM"}, {"measurement": "IC50", "setting": "B16F10 cells [1]; B16-F10, 48 h", "result": 1.5, "unit": "µM"}, {"measurement": "generation of GSDME-N", "setting": "GSDME-N", "result": "enhance the generation of GSDME-N"}, {"measurement": "ROS level", "setting": "B16F10 cells [2]", "result": "sharp rise in the ROS level"}]}]}
